Reference: PMC10059066, “Probing Serum Albumins and Cyclodextrins as Binders of the Mycotoxin Metabolites Alternariol-3-Glucoside, Alternariol-9-Monomethylether-3-Glucoside, and Zearalenone-14-Glucuronide” (Metabolites, 2023)

What was measured:
[1] = target: T1, rat serum albumin (RSA) (Rattus norvegicus, UniProt P02770); test: Fluorescence quenching of rat serum albumin by mycotoxins; assay type: binding; conditions: for RSA logKSV ± SEM (Stern–Volmer quenching constant): PBS pH 7.4, 25 °C, n = 3; for Kd: HyperQuad fitting, PBS pH 7.4, n = 3, read-out: RSA logK ± SEM (binding constant) (converted)
T1 construct: purchased Merck (Darmstadt, Germany)
T1 sequence (P02770 25-608): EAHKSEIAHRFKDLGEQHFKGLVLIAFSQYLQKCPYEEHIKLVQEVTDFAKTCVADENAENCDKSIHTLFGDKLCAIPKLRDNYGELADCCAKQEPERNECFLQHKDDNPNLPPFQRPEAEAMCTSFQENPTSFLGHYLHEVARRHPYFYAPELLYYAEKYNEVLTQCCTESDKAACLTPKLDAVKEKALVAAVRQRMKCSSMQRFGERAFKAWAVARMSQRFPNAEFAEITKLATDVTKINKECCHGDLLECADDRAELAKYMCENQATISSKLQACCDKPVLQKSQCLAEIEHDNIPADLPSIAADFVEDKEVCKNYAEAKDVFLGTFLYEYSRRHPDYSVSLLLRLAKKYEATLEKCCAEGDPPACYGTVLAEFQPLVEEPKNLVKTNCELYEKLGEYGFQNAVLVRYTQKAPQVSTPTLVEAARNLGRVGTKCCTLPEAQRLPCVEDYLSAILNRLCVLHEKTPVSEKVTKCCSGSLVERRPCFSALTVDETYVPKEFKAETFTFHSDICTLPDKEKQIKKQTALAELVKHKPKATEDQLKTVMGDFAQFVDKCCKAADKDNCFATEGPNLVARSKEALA
Method: (§1) Fluorescence emission spectra were collected at 25 °C using a Hitachi F-4500 fluorescence spectrophotometer (Tokyo, Japan). The quenching effects of AG, AMG, and Z14Glr (each 0–5 μM) on the emission signals of albumins (2 μM each) were examined at 340 nm in phosphate-buffered saline (PBS, pH 7.4). UV–vis measurements were performed at 25 °C in PBS, employing a Jasco V730 UV–vis spectrophotometer (Tokyo, Japan). Thereafter, we corrected the inner-filter effects of the mycotoxins, as previously reported. Stern–Volmer quenching constants (KSV; L/mol) were calculated with the graphical application of the Stern–Volmer equation [11, 29]:(1) I0/I=1+KSV×Q where I0 and I are the emission intensities of the protein without and with the quencher, respectively, while [Q] is the concentration (mol/L) of the quencher (mycotoxin). The binding constants (K; L/mol) of mycotoxin–albumin complexes were determined with nonlinear fitting, using the HyperQuad2006 software (version 3.1; Protonic Software GmbH, Hanau, Germany), as described previously.
(§2) The interaction of a ligand molecule with albumin usually induces a decrease in the emission signal of the protein [33]; therefore, fluorescence quenching studies were performed. In PBS (pH 7.4), increasing amounts of AG, AMG, and Z14Glr were added to standard concentrations of human (HSA), bovine (BSA), porcine (PSA), or rat (RSA) serum albumins, after which the emission spectra were recorded.
(§3) The KSV and K values of mycotoxin–albumin complexes were determined using the Stern–Volmer equation (Equation (1)) and the HyperQuad2006 software (see data in Table 1 and Table 2, respectively). […] The logKSV and logK values of the mycotoxin–albumin complexes were in good agreement (Table 1 and Table 2).

[2] = Extraction of mycotoxins from aqueous solutions with β-cyclodextrin bead polymer; conditions: for decrease in mycotoxin concentration (extraction) by BBP: BBP 10 mg/mL, mycotoxin 5 μM, sodium acetate buffer pH 5.0, 40 min, 25 °C; for removal of mycotoxin by BBP at pH 10.0 compared with pH 5.0: sodium borate pH 10.0 vs sodium acetate pH 5.0, mycotoxin 5 μM
Method: (§4) The extraction of mycotoxins by insoluble (but water-swellable) CD bead polymers was tested in 0.05 M sodium acetate (pH 5.0) and 0.05 M sodium borate (pH 10.0) buffers. AG, AMG, alternariol, Z14Glr, and zearalenone solutions (5 μM each) were incubated with increasing amounts (0–10 mg/mL) of BBP or GBP in a thermomixer for 40 min at 1000 rpm and 25 °C. After pulse centrifugation (5000× g, 3 s), the mycotoxin contents of the supernatants were analyzed by HPLC-FLD (see Section 2.5).
(§5) The quantitative analyses of the examined mycotoxins were performed with a Jasco HPLC system (Tokyo, Japan) equipped with a binary pump (PU-4180), an autosampler (AS 4050), and a fluorescence detector (FP-920). Chromatograms were evaluated using the ChromNAV2 software (Jasco). Alternariol and zearalenone were analyzed as described previously. During the validation of our new HPLC-FLD methods, the linearity (LIN), limit of detection (LOD), limit of quantification (LOQ), and intraday repeatability (IDR) were determined as described previously.
AG and AMG were quantified using the following method: Isocratic elution of the samples (20 μL) was performed at room temperature with a 1 mL/min flow rate, employing phosphoric acid (1 mM) and acetonitrile (65:35 v/v%) as the mobile phase, where a Security Guard (C18, 4.0 × 3.0 mm; Phenomenex, Torrance, CA, US) precolumn was linked to a Kinetex EVO C18 (250 × 4.6 mm, 5 μm; Phenomenex) analytical column. Chromatograms were recorded, applying 335 nm and 455 nm excitation and emission wavelengths, respectively. The method validation parameters were as follows: AG (LIN: 0.2–5.0 μM, R^2 = 0.999; LOD = 0.05 μM; LOQ = 0.18 μM; IDR = 1.3%, n = 7); AMG (LIN: 0.2–5.0 μM, R^2 = 0.997; LOD = 0.15 μM; LOQ = 0.50 μM; IDR = 2.3%, n = 7).
Z14Glr was quantified using the following method: Isocratic elution of the samples (20 μL) was performed at room temperature with a 1 mL/min flow rate, employing 1% acetic acid solution and acetonitrile (65:35 v/v%) as the mobile phase, where a Security Guard (C8, 4.0 × 3.0 mm; Phenomenex) precolumn was linked to a Mediterranea See8 (C8, 150 × 4.6 mm, 5 μm; Teknokroma, Barcelona, Spain) analytical column. Chromatograms were recorded, applying 315 nm and 465 nm excitation and emission wavelengths, respectively. The method validation parameters for the HPLC analysis of Z14Glr were also determined (LIN: 0.2–5.0 μM, R^2 = 0.999; LOD = 0.15 μM; LOQ = 0.50 μM; IDR = 2.0%, n = 7).

[3] = Extraction of mycotoxins from aqueous solutions with γ-cyclodextrin bead polymer; conditions: GBP 0–10 mg/mL, mycotoxin 5 μM, sodium acetate buffer pH 5.0
Method: as §4, §5
AG and AMG were quantified using the following method: Isocratic elution of the samples (20 μL) was performed at room temperature with a 1 mL/min flow rate, employing phosphoric acid (1 mM) and acetonitrile (65:35 v/v%) as the mobile phase, where a Security Guard (C18, 4.0 × 3.0 mm; Phenomenex, Torrance, CA, US) precolumn was linked to a Kinetex EVO C18 (250 × 4.6 mm, 5 μm; Phenomenex) analytical column. Chromatograms were recorded, applying 335 nm and 455 nm excitation and emission wavelengths, respectively. […]
Z14Glr was quantified using the following method: Isocratic elution of the samples (20 μL) was performed at room temperature with a 1 mL/min flow rate, employing 1% acetic acid solution and acetonitrile (65:35 v/v%) as the mobile phase, where a Security Guard (C8, 4.0 × 3.0 mm; Phenomenex) precolumn was linked to a Mediterranea See8 (C8, 150 × 4.6 mm, 5 μm; Teknokroma, Barcelona, Spain) analytical column. Chromatograms were recorded, applying 315 nm and 465 nm excitation and emission wavelengths, respectively. […]

[4] = Fluorescence spectroscopic study of mycotoxin-SGD complex formation; assay type: binding; conditions: for SGD logK ± SEM (binding constant): Benesi–Hildebrand, 0.05 M sodium acetate pH 5.0, mycotoxin 1 μM, n = 3; for SGD-induced increase in the emission signal of the mycotoxin: SGD 0–5 mM, mycotoxin 1 μM, sodium acetate pH 5.0
Method: The impacts of SBECD (0–10 mM) and SGD (0–5 mM) on the emission signals of mycotoxins (1 μM each) were tested in sodium acetate buffer (0.05 M, pH 5.0). Mycotoxin–CD interactions were evaluated using the Benesi–Hildebrand equation [11, 31], assuming 1:1 stoichiometry of complex formation:(2) F0/F−F0=1/A+1/A×K×[CD] where K (L/mol) is the binding constant, F0 is the emission signal of the mycotoxin without the host molecules, F is the emission signal of the mycotoxin with CDs, A is a constant, and [CD] is the molar concentration (mol/L) of the host molecules.
Therefore, CD-induced elevation in the fluorescence emission intensities of mycotoxins was examined.
Based on the emission signals at 455 nm, the binding constants of ligand–CD complexes were calculated using the Benesi–Hildebrand equation (Equation (2)). Background corrections were performed in each experiment. […] Glucose and glucuronic acid are bulky, hydrophilic molecules; therefore, it is reasonable to hypothesize that these substituents make the inclusion of AG, AMG, and Z14Glr by the apolar CD cavity difficult.

[5] = target: T2, bovine serum albumin (BSA) (Bos taurus, UniProt P02769); test: Fluorescence quenching of bovine serum albumin by mycotoxins; assay type: binding; conditions: for BSA logKSV ± SEM (Stern–Volmer quenching constant): PBS pH 7.4, 25 °C, n = 3; for Kd: fluorescence quenching, HyperQuad fitting, PBS pH 7.4, n = 3, read-out: BSA logK ± SEM (binding constant) (converted)
T2 construct: purchased Merck (Darmstadt, Germany)
T2 sequence (P02769 25-607): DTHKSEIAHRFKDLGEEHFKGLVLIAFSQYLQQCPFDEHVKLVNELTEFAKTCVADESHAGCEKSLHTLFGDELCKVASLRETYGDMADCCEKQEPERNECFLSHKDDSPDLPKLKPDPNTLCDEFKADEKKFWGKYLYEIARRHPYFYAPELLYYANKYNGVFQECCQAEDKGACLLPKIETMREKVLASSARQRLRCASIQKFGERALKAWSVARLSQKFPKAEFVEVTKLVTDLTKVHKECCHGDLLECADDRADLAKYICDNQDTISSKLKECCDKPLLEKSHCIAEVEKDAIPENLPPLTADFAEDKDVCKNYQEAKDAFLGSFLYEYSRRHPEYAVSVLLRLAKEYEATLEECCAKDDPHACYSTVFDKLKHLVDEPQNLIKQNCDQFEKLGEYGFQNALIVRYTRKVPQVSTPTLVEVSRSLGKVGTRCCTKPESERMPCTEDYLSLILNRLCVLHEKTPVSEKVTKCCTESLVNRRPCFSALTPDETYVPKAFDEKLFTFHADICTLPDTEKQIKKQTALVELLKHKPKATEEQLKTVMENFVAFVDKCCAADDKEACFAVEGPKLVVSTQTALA
Method: as §1, §2, §3

[6] = target: T3, human serum albumin (HSA) (Homo sapiens, UniProt P02768); test: Fluorescence quenching of human serum albumin by mycotoxins; assay type: binding; conditions: for HSA logKSV ± SEM (Stern–Volmer quenching constant): PBS pH 7.4, 25 °C, n = 3; for Kd: fluorescence quenching, HyperQuad fitting, PBS pH 7.4, n = 3, read-out: HSA logK ± SEM (binding constant) (converted)
T3 construct: purchased Merck (Darmstadt, Germany)
T3 sequence (P02768 25-609): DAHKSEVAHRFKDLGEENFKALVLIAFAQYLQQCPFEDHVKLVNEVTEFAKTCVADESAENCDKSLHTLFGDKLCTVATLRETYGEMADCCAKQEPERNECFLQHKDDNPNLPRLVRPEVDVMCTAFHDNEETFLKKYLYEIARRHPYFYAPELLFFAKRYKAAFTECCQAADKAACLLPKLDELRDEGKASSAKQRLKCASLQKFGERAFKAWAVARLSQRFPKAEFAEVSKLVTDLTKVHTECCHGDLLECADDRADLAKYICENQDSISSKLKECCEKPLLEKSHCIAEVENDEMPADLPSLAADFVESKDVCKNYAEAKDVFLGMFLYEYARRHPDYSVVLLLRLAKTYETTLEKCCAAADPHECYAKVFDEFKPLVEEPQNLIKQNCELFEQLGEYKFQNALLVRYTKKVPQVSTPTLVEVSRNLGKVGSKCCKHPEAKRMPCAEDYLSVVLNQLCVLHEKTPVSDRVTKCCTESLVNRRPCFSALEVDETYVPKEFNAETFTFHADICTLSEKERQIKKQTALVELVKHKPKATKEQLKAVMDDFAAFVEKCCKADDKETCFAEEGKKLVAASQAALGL
Method: as §1, §2, §3

[7] = target: T4, porcine serum albumin (PSA) (Sus scrofa, UniProt P08835); test: Fluorescence quenching of porcine serum albumin by mycotoxins; assay type: binding; conditions: for PSA logKSV ± SEM (Stern–Volmer quenching constant): PBS pH 7.4, 25 °C, n = 3; for Kd: fluorescence quenching, HyperQuad fitting, PBS pH 7.4, n = 3, read-out: PSA logK ± SEM (binding constant) (converted)
T4 construct: purchased Merck (Darmstadt, Germany)
T4 sequence (P08835 25-607): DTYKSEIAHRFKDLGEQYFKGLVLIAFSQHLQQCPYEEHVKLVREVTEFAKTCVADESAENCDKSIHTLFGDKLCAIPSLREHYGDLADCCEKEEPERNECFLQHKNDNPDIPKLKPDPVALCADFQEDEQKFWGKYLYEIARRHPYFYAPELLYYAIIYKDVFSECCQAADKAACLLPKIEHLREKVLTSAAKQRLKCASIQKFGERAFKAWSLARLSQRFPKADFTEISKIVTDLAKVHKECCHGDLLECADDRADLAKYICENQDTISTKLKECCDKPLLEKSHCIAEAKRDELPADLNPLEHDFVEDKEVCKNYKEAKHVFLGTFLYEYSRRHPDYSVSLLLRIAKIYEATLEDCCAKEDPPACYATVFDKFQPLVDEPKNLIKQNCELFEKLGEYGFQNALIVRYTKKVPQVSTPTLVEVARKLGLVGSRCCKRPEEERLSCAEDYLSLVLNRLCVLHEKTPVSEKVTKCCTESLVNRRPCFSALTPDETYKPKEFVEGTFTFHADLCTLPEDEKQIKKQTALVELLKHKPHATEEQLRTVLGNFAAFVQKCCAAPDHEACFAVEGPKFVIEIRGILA
Method: as §1, §2, §3

[8] = mycotoxin 0–5 μM, albumin 2 μM, PBS pH 7.4

Row | Structure (SMILES) | RSA logKSV ± SEM (Stern–Volmer quenching constant) ([1]; albumin 2 μM, mycotoxin 0–5 μM) | Kd ([1]; fluorescence quenching) | decrease in mycotoxin concentration (extraction) by BBP [2] | removal of mycotoxin by BBP at pH 10.0 compared with pH 5.0 [2] | removal of mycotoxin by GBP [3] | SGD logK ± SEM (binding constant) [4] | SGD-induced increase in the emission signal of the mycotoxin [4] | BSA logKSV ± SEM (Stern–Volmer quenching constant) ([5]; albumin 2 μM, mycotoxin 0–5 μM) | Kd [5] | HSA logKSV ± SEM (Stern–Volmer quenching constant) ([6]; albumin 2 μM, mycotoxin 0–5 μM) | Kd [6] | PSA logKSV ± SEM (Stern–Volmer quenching constant) ([7]; albumin 2 μM, mycotoxin 0–5 μM) | Kd [7] | binding constant K of Z14Glr-RSA complex ([1]; fluorescence quenching, PBS pH 7.4) | effect on fluorescence emission intensity of RSA [1, 8] | effect on fluorescence emission spectrum of BSA [5, 8] | effect on fluorescence emission spectrum of HSA [6, 8] | effect on fluorescence emission spectrum of PSA [7, 8]
1 | Cc1cc(OC2O[C@H](CO)[C@@H](O)[C@H](O)[C@H]2O)cc2oc(=O)c3c(O)cc(O)cc3c12 (stereo partly shown) [AG, alternariol-3-glucoside] | 4.49 ± 0.03 L/mol | 29.5 µM | approximately 85% | significantly lower than at acidic pH | strongly reduced | 3.19 ± 0.08 L/mol | approximately sevenfold increase | 4.44 ± 0.04 L/mol | 34.7 µM | 4.48 ± 0.08 L/mol | 30.2 µM | 4.38 ± 0.03 L/mol | 37.2 µM | – | – | – | – | –
2 | COc1cc(O)c2c(=O)oc3cc(OC4O[C@H](CO)[C@@H](O)[C@H](O)[C@H]4O)cc(C)c3c2c1 (stereo partly shown) [AMG, alternariol-9-monomethylether-3-glucoside] | 4.62 ± 0.02 L/mol | 22.4 µM | ~75% | did not show relevant pH dependence | strongly reduced | 3.45 ± 0.04 L/mol | approximately sevenfold increase | 4.57 ± 0.02 L/mol | 25.7 µM | 4.38 ± 0.05 L/mol | 39.8 µM | 4.27 ± 0.03 L/mol | 51.3 µM | – | – | – | – | –
3 | C[C@H]1CCCC(=O)CCC/C=C/c2cc(O[C@@H]3OC(C(=O)O)[C@@H](O)C(O)C3O)cc(O)c2C(=O)O1 (stereo partly drawn) [Z14Glr, zearalenone-14-β,D-glucuronide] | 4.65 ± 0.05 L/mol | 19.5 µM | 45% | significantly lower than at acidic pH | only moderate removal | – | fivefold | – | – | – | – | – | – | ≈ 5 × 10^4 L/mol | considerably decreased | barely affected | barely affected | barely affected
